Here are results for 1 molecule from patent US20250064955A1, “DRUG CONJUGATES AND METHODS OF PREPARING AND USING THE SAME” (priority 2021, published 2025).

Where a SMILES comes first, the peptide text is derived from it. [ ]: non-standard residue; d: D form. The star is where a group is joined. Dolaproine = CO[C@@H]([C@@H]1CCCN1)[C@@H](C)C(=O)O; Dil = CC[C@H](C)[C@H](NC)[C@@H](CC(=O)O)OC; X1 = C[C@@H](N*)[C@@H](O)c1ccccc1; NMeV = CN[C@H](C(=O)O)C(C)C

Test [1] has as its system HCC1954 breast ductal carcinoma cells. The test is described as follows: In vitro potency, cell viability (Cell Titer Glo 2.0), HCC1954. Format: cell-based. The following applies: Homo sapiens, HCC1954, 120 h. The method, then:
(§1) HCC1954 breast ductal carcinoma or SK-BR-3 cells (ATCC, Manassas, VA, USA) were seeded into 384-well white-walled culture plates and allowed to adhere for 2-4 hours. Cells were then treated with test articles at least in duplicate by addition of 5-fold serially diluted test articles prepared at 2× final concentration and incubated at 37° C. for 120 hours. Cell viability following treatment was determined by Cell Titer Glo 2.0 Assay (Promega, Madison, WI, USA) and normalized to non-treated controls. Dose-response relationships were analyzed using GraphPad Prism (La Jolla, CA, USA), and IC50 values were derived from non-linear regression analyses using a 4-parameter logistic equation.

The subject of test [2] is SK-BR-3 cells. Put plainly: In vitro potency, cell viability (Cell Titer Glo 2.0), SK-BR-3. The test is classed as cell-based. The following applies: Homo sapiens, SK-BR-3, 120 h. The protocol: as §1
In general terms: Cellular ATP, detected with luciferase, serves as a proxy for viable cell number.

The term IC50 denotes the point on the concentration scale where inhibition reaches its midpoint. Low values mean greater potency, high ones weaker potency. On to `CC[C@H](C)[C@@H]([C@@H](CC(=O)N1CCC[C@H]1[C@H](OC)[C@@H](C)C(=O)N[C@H](C)[C@@H](O)c1ccccc1)OC)N(C)C(=O)[C@@H](NC(=O)[C@@H](NC)C(C)C)C(C)C` [MMAE, (S)-N-((3R,4S,5S)-1-((S)-2-((1R,2R)-3-(((1S,2R)-1-hydroxy-1-phenylpropan-2-yl)amino)-1-methoxy-2-methyl-3-oxopropyl)pyrrolidin-1-yl)-3-methoxy-5-methyl-1-oxoheptan-4-yl)-N,3-dimethyl-2-((S)-3-methyl-2-(methylamino)butanamido)butanamide] (H-[NMeV]V[Dil][Dolaproine]-X1), for which the IC50 was determined as 0.21 nM in test [1] and 0.127 nM in test [2].
